Data from ChEMBL document CHEMBL4417631, “Oral peptide inhibitors of interleukin-23 receptor and their use to treat inflammatory bowel diseases” (2017).
Where a SMILES comes first, the peptide text is derived from it.

Target: T1, Interleukin-23 receptor (Homo sapiens, UniProt Q5VWK5)
T1 sequence (Q5VWK5 whole entry): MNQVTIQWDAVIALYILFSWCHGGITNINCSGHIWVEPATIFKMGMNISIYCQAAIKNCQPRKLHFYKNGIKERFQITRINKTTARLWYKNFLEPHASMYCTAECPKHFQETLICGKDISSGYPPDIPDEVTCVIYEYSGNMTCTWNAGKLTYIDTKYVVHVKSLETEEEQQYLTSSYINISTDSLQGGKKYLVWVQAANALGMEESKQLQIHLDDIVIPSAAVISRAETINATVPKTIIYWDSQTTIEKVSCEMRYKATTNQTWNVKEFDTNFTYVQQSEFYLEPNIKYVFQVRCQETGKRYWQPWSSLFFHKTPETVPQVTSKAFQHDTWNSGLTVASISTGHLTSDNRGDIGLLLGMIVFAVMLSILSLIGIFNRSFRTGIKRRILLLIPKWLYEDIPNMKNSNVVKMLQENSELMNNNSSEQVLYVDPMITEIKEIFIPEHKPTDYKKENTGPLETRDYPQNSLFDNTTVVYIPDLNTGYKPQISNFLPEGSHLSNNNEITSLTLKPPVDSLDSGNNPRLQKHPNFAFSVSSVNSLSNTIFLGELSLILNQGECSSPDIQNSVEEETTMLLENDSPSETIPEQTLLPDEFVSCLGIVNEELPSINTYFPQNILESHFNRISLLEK
Experiment: Inhibition of interleukin-23 binding to human interleukin-23 receptor incubated for 2 hrs by competitive binding ELISA

IC50 | Compound
< 0.5 µM | CC(=O)N[C@@H](CS)C(=O)N[C@@H](C)C(=O)N[C@@H](CC(=O)O)C(=O)N[C@@H](Cc1c[nH]c2ccccc12)C(=O)N[C@H](C(=O)N[C@@H](CS)C(=O)N[C@@H](Cc1ccc(O)cc1)C(=O)N[C@@H](Cc1c[nH]c2ccccc12)C(=O)N[C@@H](Cc1cnc[nH]1)C(=O)N[C@H](C(=O)N[C@@H](Cc1ccccc1)C(=O)NCC(=O)NCCCC(=O)N[C@H](CCCCN)C(=O)O)[C@@H](C)O)C(C)C
> 1 µM | CC(=O)N[C@@H](CS)C(=O)N[C@@H](CCC(N)=O)C(=O)N[C@H](C(=O)N[C@@H](Cc1c[nH]c2ccccc12)C(=O)N[C@@H](CCC(N)=O)C(=O)N[C@@H](CS)C(=O)N[C@@H](Cc1ccc(O)cc1)C(=O)N[C@@H](Cc1c[nH]c2ccccc12)C(=O)N(C)[C@@H](CCC(=O)O)C(=O)N[C@@H](CC(N)=O)C(=O)NCC(=O)NCCOCC(=O)N[C@H](CCCCN)C(=O)O)[C@@H](C)O
0.5 to 1 µM | CC(=O)N[C@@H](CS)C(=O)N[C@@H](C)C(=O)N[C@@H](CC(=O)O)C(=O)N[C@@H](Cc1c[nH]c2ccccc12)C(=O)N[C@H](C(=O)N[C@@H](CS)C(=O)N[C@@H](Cc1ccc(O)cc1)C(=O)N[C@@H](Cc1c[nH]c2ccccc12)C(=O)N[C@@H](Cc1cnc[nH]1)C(=O)N[C@@H](CCCNC(=N)N)C(=O)N[C@@H](CO)C(=O)N[C@H](C(=O)NCC(=O)NCC(=O)N[C@@H](CCC(N)=O)C(=O)N[C@@H](Cc1cnc[nH]1)C(N)=O)[C@@H](C)O)C(C)C (Ac-CADWVCYWHRSTGGQH-NH2)
> 30 µM | CC(=O)N[C@@H](CS)C(=O)N[C@@H](C)C(=O)N[C@@H](CC(=O)O)C(=O)N[C@@H](Cc1c[nH]c2ccccc12)C(=O)N[C@H](C(=O)N[C@@H](CS)C(=O)N[C@@H](Cc1ccc(O)cc1)C(=O)N[C@@H](Cc1c[nH]c2ccccc12)C(=O)N[C@@H](CCCN)C(=O)N[C@H](C(=O)N[C@@H](Cc1ccccc1)C(=O)NCC(=O)NCCC(=O)N[C@H](CCCCN)C(N)=O)C1CCCCC1)C(C)C
> 30 µM | CC(=O)N[C@@H](CS)C(=O)N[C@@H](CCC(N)=O)C(=O)N[C@H](C(=O)N[C@@H](Cc1c[nH]c2ccccc12)C(=O)N[C@@H](CCC(N)=O)C(=O)N[C@@H](CS)C(=O)N[C@@H](Cc1ccc(O)cc1)C(=O)N[C@@H](Cc1c[nH]c2ccccc12)C(=O)N1CCC[C@@H]1C(=O)N[C@@H](CCC(=O)O)C(=O)N[C@@H](CC(N)=O)C(=O)NCC(N)=O)[C@@H](C)O
> 1 µM | CC(=O)N[C@@H](CS)C(=O)N[C@@H](C)C(=O)N[C@@H](CC(=O)O)C(=O)N[C@@H](Cc1c[nH]c2ccccc12)C(=O)N[C@H](C(=O)N[C@@H](CS)C(=O)N[C@@H](Cc1ccc(O)cc1)C(=O)N[C@@H](Cc1cccc2ccccc12)C(=O)N[C@@H](Cc1cnc[nH]1)C(=O)NC(C)(C)C(=O)N[C@H](Cc1ccccc1)C(=O)NCC(N)=O)C(C)C
1 to 10 µM | CC(=O)N[C@@H](CS)C(=O)N[C@@H](C)C(=O)N[C@@H](CC(=O)O)C(=O)N[C@@H](Cc1c[nH]c2ccccc12)C(=O)N[C@H](C(=O)N[C@@H](CS)C(=O)N[C@@H](Cc1ccc(O)cc1)C(=O)N[C@@H](Cc1c[nH]c2ccccc12)C(=O)N[C@@H](Cc1cnc[nH]1)C(=O)N[C@H](C(=O)N[C@@H](CCCCNC(=O)COCC(=O)NCCCC[C@H](NC(=O)[C@@H](NC(=O)[C@H](Cc1cnc[nH]1)NC(=O)[C@H](Cc1c[nH]c2ccccc12)NC(=O)[C@H](Cc1ccc(O)cc1)NC(=O)[C@H](CS)NC(=O)[C@@H](NC(=O)[C@H](Cc1c[nH]c2ccccc12)NC(=O)[C@H](CC(=O)O)NC(=O)[C@H](C)NC(=O)[C@H](CS)NC(C)=O)C(C)C)[C@@H](C)O)C(=O)NCC(=O)O)C(=O)NCC(=O)O)[C@@H](C)O)C(C)C
0.1 to 1 µM | CC(=O)NCCCC[C@H](NC(=O)[C@](C)(CCCCN)NC(=O)[C@H](Cc1ccc2ccccc2c1)NC(=O)[C@H](Cc1ccc(Cl)c(Cl)c1)NC(=O)[C@@H](NC(=O)[C@H](CCC(N)=O)NC(=O)[C@H](Cc1c[nH]c2ccccc12)NC(=O)[C@@H](NC(=O)[C@H](CCC(N)=O)NC(=O)[C@@H](NC(C)=O)C(C)(C)S)[C@@H](C)O)C(C)(C)S)C(=O)N[C@@H](CC(N)=O)C(=O)NCC(N)=O
> 1 µM | CC(=O)N[C@@H](CS)C(=O)N[C@@H](CCCCN)C(=O)N[C@@H](CC(=O)O)C(=O)N[C@@H](Cc1c[nH]c2ccccc12)C(=O)N[C@H](C(=O)N[C@@H](CS)C(=O)N[C@@H](Cc1ccc(O)cc1)C(=O)N[C@@H](Cc1c[nH]c2ccccc12)C(=O)N[C@@H](Cc1cnc[nH]1)C(=O)N[C@H](C(=O)N[C@@H](Cc1ccccc1)C(=O)NCC(=O)O)[C@@H](C)O)C(C)C
0.1 to 1 µM | CC(=O)N[C@H](C(=O)N[C@@H](CCC(N)=O)C(=O)N[C@H](C(=O)N[C@@H](Cc1c[nH]c2ccccc12)C(=O)N[C@@H](CCC(N)=O)C(=O)N[C@H](C(=O)N[C@@H](Cc1ccc(Cl)c(Cl)c1)C(=O)N[C@@H](Cc1ccc2ccccc2c1)C(=O)N[C@@](C)(CCCN)C(=O)N[C@@H](CCC(=O)O)C(=O)N[C@@H](CC(N)=O)C(=O)NCC(N)=O)C(C)(C)S)[C@@H](C)O)C(C)(C)S
> 30 µM | CC(=O)N[C@@H](CS)C(=O)N[C@@H](CCC(N)=O)C(=O)N[C@H](C(=O)N[C@@H](Cc1c[nH]c2ccccc12)C(=O)N[C@@H](CCC(N)=O)C(=O)N[C@@H](CS)C(=O)N[C@H](Cc1ccc(O)cc1)C(=O)N[C@@H](Cc1c[nH]c2ccccc12)C(=O)N[C@@H](CCC(C)C)C(=O)N[C@@H](CCC(=O)O)C(=O)N[C@@H](CC(N)=O)C(=O)NCC(N)=O)[C@@H](C)O
0.1 to 1 µM | CC(=O)N[C@H](C(=O)N[C@@](C)(CCCN)C(=O)N[C@H](C(=O)N[C@@H](Cc1c[nH]c2ccccc12)C(=O)N[C@@H](CCC(N)=O)C(=O)N[C@H](C(=O)N[C@@H](Cc1ccc(OCCN)cc1)C(=O)N[C@@H](Cc1ccc2ccccc2c1)C(=O)N[C@@](C)(CCCCN)C(=O)N[C@@H](CCC(=O)O)C(=O)N[C@@H](CC(N)=O)C(=O)NCC(N)=O)C(C)(C)S)[C@@H](C)O)C(C)(C)S
> 1 µM | CC(=O)N[C@@H](CS)C(=O)N[C@@H](C)C(=O)N[C@@H](CC(=O)O)C(=O)N[C@@H](Cc1c[nH]c2ccccc12)C(=O)N[C@H](C(=O)N[C@@H](CS)C(=O)N[C@@H](Cc1ccc(O)cc1)C(=O)N[C@@H](Cc1ccc(-c2ccccc2)cc1)C(=O)N[C@@H](Cc1cnc[nH]1)C(=O)N[C@H](C(=O)N[C@@H](Cc1ccccc1)C(=O)NCC(=O)NCCOCC(=O)N[C@H](CCCCN)C(N)=O)[C@@H](C)O)C(C)C
> 30 µM | CC(=O)N[C@@H](C)C(=O)N[C@H](C(=O)N[C@@H](CC(=O)O)C(=O)N[C@@H](Cc1c[nH]c2ccccc12)C(=O)N[C@H](C(=O)N[C@H](C(=O)N[C@@H](Cc1ccc(O)cc1)C(=O)N[C@@H](Cc1c[nH]c2ccccc12)C(=O)N[C@@H](CCCN)C(=O)N[C@@H](CN)C(=O)N[C@@H](Cc1ccccc1)C(=O)NCC(=O)NCCOCC(=O)N[C@H](CCCCN)C(N)=O)C(C)(C)S)C(C)C)C(C)(C)S
0.1 to 1 µM | CC(=O)NC1C/C=C\CCC(C(=O)N[C@@H](Cc2ccc(O)cc2)C(=O)N[C@@H](Cc2c[nH]c3ccccc23)C(=O)N[C@@H](CCCNC(=N)N)C(=O)N[C@@H](CCCCN)C(=O)N[C@@H](Cc2ccccc2)C(=O)NCC(=O)NCCOCC(=O)N[C@H](CCCCN)C(N)=O)NC(=O)[C@H](CCC(N)=O)NC(=O)[C@H](Cc2c[nH]c3ccccc23)NC(=O)[C@H]([C@@H](C)O)NC(=O)[C@H](CCCNC(=N)N)NC1=O (stereo not given in full)
